Assay results reported in US10829501B2 (BRISTOL-MYERS SQUIBB COMPANY, priority 2016, dated 2020).

Biological target: ROCK2 (Homo sapiens, UniProt O75116)
Assay: ROCK2 kinase inhibition assay (LABCHIP 3000 Reader, FITC peptide substrate);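 note: rho kinase reaction read by separating phosphorylated from unphosphorylated peptide on chip, with inhibition of kinase activity computed per concentration across a dose-response series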

Chain of ROCK2 (O75116 whole entry, species assumed): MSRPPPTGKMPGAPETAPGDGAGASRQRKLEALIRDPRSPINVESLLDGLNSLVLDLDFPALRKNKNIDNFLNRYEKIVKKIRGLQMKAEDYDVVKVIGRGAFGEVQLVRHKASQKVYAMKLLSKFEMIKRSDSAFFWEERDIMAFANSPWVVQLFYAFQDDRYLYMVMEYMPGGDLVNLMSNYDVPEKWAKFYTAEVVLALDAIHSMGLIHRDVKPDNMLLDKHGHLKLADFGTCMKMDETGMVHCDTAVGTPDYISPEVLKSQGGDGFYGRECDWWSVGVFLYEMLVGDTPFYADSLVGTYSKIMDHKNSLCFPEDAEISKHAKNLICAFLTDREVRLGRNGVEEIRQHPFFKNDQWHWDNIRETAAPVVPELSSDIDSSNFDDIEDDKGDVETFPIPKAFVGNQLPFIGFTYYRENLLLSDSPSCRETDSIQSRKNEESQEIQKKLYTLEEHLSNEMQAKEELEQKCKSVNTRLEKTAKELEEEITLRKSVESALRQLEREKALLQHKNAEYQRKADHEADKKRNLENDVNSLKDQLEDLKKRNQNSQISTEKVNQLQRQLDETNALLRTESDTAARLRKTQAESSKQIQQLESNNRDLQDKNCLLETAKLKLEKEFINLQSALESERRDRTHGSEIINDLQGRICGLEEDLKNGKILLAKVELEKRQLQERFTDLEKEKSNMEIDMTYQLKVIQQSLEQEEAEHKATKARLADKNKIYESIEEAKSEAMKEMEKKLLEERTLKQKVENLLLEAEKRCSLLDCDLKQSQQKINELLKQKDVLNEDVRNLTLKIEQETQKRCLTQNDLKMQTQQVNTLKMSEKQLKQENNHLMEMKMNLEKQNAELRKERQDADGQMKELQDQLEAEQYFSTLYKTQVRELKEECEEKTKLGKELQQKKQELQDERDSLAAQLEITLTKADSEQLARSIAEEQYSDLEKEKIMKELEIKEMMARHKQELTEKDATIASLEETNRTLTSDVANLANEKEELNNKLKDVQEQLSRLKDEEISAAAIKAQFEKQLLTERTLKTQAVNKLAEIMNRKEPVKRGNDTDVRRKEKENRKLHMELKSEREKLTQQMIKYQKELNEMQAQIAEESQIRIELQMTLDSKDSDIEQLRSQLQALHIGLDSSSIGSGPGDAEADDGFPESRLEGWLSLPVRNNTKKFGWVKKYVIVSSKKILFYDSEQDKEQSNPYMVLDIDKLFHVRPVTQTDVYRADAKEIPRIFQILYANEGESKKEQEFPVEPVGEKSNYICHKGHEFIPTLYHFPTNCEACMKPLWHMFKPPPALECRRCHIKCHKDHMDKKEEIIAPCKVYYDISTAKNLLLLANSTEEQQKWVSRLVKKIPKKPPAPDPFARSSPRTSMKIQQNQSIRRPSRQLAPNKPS

Row | SMILES | IC50
1 | CC(C)(O)COc1ccc2c(C(=O)NC3CC4(C3)CC(Oc3cc(C5CNC5)ccc3C(N)=O)C4)cnn2c1 (stereo not drawn) [Example 226, N-(6-(5-(azetidin-3-yl)-2-carbamoylphenoxy)spiro[3.3]heptan-2-yl)-6-(2-hydroxy-2-methylpropoxy)pyrazolo[1,5-a]pyridine-3-carboxamide] | 50 to 250 nM
2 | CC(C)(O)COc1ccc2c(C(=O)NC3CC4(C3)CC(Oc3cc(-c5ccccc5C(F)(F)F)ccc3C(N)=O)C4)cnn2c1 (stereo not drawn) [Example 228, N-(6-((4-carbamoyl-2′-(trifluoromethyl)-[1,1′-biphenyl]-3-yl)oxy)spiro[3.3]heptan-2-yl)-6-(2-hydroxy-2-methylpropoxy)pyrazolo[1,5-a]pyridine-3-carboxamide] | 50 to 250 nM
3 | CC(C)(O)COc1ccc2c(C(=O)NC3CC4(C3)CC(Oc3cc(N5CCOCC5)ccc3C(N)=O)C4)cnn2c1 (stereo not drawn) [Example 230, N-(6-(2-carbamoyl-5-morpholinophenoxy)spiro[3.3]heptan-2-yl)-6-(2-hydroxy-2-methylpropoxy)pyrazolo[1,5-a]pyridine-3-carboxamide] | 50 to 250 nM
4 | CC(C)(O)COc1ccc2c(C(=O)NC3CC4(C3)CC(Oc3cc(-c5ccc(C(C)(C)O)nc5)ccc3C(N)=O)C4)cnn2c1 (stereo not drawn) [Example 234, N-(6-(2-carbamoyl-5-(6-(2-hydroxypropan-2-yl)pyridin-3-yl)phenoxy)spiro[3.3]heptan-2-yl)-6-(2-hydroxy-2-methylpropoxy)pyrazolo[1,5-a]pyridine-3-carboxamide] | 50 to 250 nM
5 | CC(C)(O)COc1ccc2c(C(=O)NC3CC4(C3)CC(Oc3cc(-c5cccc(N)n5)ccc3C(N)=O)C4)cnn2c1 (stereo not drawn) [Example 236, N-(6-(5-(6-aminopyridin-2-yl)-2-carbamoylphenoxy)spiro[3.3]heptan-2-yl)-6-(2-hydroxy-2-methylpropoxy)pyrazolo[1,5-a]pyridine-3-carboxamide] | 5 to 50 nM
6 | CC(C)(O)COc1ccc2c(C(=O)NC3CC4(C3)CC(Oc3cc(-c5ccccn5)ccc3C(N)=O)C4)cnn2c1 (stereo not drawn) [Example 237, N-(6-(2-carbamoyl-5-(pyridin-2-yl)phenoxy)spiro[3.3]heptan-2-yl)-6-(2-hydroxy-2-methylpropoxy)pyrazolo[1,5-a]pyridine-3-carboxamide] | 5 to 50 nM
7 | CC(C)(O)COc1ccc2c(C(=O)NC3CC4(C3)CC(Oc3cc(-c5cccc(OCC(F)(F)F)c5)ccc3C(N)=O)C4)cnn2c1 (stereo not drawn) [Example 238, N-(6-((4-carbamoyl-3′-(2,2,2-trifluoroethoxy)-[1,1′-biphenyl]-3-yl)oxy)spiro[3.3]heptan-2-yl)-6-(2-hydroxy-2-methylpropoxy)pyrazolo[1,5-a]pyridine-3-carboxamide] | 50 to 250 nM
8 | COc1cccc(-c2ccc(C(N)=O)c(OC3CC4(CC(NC(=O)c5cnn6cc(OCC(C)(C)O)ccc56)C4)C3)c2)c1 (stereo not drawn) [Example 239, N-(6-((4-carbamoyl-3′-methoxy-[1,1′-biphenyl]-3-yl)oxy)spiro[3.3]heptan-2-yl)-6-(2-hydroxy-2-methylpropoxy)pyrazolo[1,5-a]pyridine-3-carboxamide] | 5 to 50 nM
9 | CC(C)(O)COc1ccc2c(C(=O)NC3CC4(C3)CC(Oc3cc(-c5cccc(O)c5)ccc3C(N)=O)C4)cnn2c1 (stereo not drawn) [Example 240, N-(6-((4-carbamoyl-3′-hydroxy-[1,1′-biphenyl]-3-yl)oxy)spiro[3.3]heptan-2-yl)-6-(2-hydroxy-2-methylpropoxy)pyrazolo[1,5-a]pyridine-3-carboxamide] | 5 to 50 nM
10 | CC(C)(O)COc1ccc2c(C(=O)NC3CC4(C3)CC(Oc3cc(-c5cccc(C(F)F)c5)ccc3C(N)=O)C4)cnn2c1 (stereo not drawn) [Example 241, N-(6-((4-carbamoyl-3′-(difluoromethyl)-[1,1′-biphenyl]-3-yl)oxy)spiro[3.3]heptan-2-yl)-6-(2-hydroxy-2-methylpropoxy)pyrazolo[1,5-a]pyridine-3-carboxamide] | 5 to 50 nM
11 | CC(C)(O)COc1ccc2c(C(=O)NC3CC4(C3)CC(Oc3cc(-c5cccc(F)c5)ccc3C(N)=O)C4)cnn2c1 (stereo not drawn) [Example 242, N-(6-((4-carbamoyl-3′-fluoro-[1,1′-biphenyl]-3-yl)oxy)spiro[3.3]heptan-2-yl)-6-(2-hydroxy-2-methylpropoxy)pyrazolo[1,5-a]pyridine-3-carboxamide] | 5 to 50 nM
12 | CC(C)(O)COc1ccc2c(C(=O)NC3CC4(C3)CC(Oc3cc(-c5cccc(C(F)(F)F)c5)ccc3C(N)=O)C4)cnn2c1 (stereo not drawn) [Example 243, N-(6-((4-carbamoyl-3′-(trifluoromethyl)-[1,1′-biphenyl]-3-yl)oxy)spiro[3.3]heptan-2-yl)-6-(2-hydroxy-2-methylpropoxy)pyrazolo[1,5-a]pyridine-3-carboxamide] | 50 to 250 nM
13 | COCc1cccc(-c2ccc(C(N)=O)c(OC3CC4(CC(NC(=O)c5cnn6cc(OCC(C)(C)O)ccc56)C4)C3)c2)c1 (stereo not drawn) [Example 245, N-(6-((4-carbamoyl-3′-(methoxymethyl)-[1,1′-biphenyl]-3-yl)oxy)spiro[3.3]heptan-2-yl)-6-(2-hydroxy-2-methylpropoxy)pyrazolo[1,5-a]pyridine-3-carboxamide] | 5 to 50 nM
14 | Cc1nn(-c2cccc(-c3ccc(C(N)=O)c(OC4CC5(CC(NC(=O)c6cnn7cc(OCC(C)(C)O)ccc67)C5)C4)c3)c2)c(N)c1C#N (stereo not drawn) [Example 246, N-(6-((3′-(5-amino-4-cyano-3-methyl-1H-pyrazol-1-yl)-4-carbamoyl-[1,1′-biphenyl]-3-yl)oxy)spiro[3.3]heptan-2-yl)-6-(2-hydroxy-2-methylpropoxy)pyrazolo[1,5-a]pyridine-3-carboxamide] | 5 to 50 nM
15 | CC(C)(O)COc1ccc2c(C(=O)NC3CC4(C3)CC(Oc3cc(-c5cccc(Cl)n5)ccc3C(N)=O)C4)cnn2c1 (stereo not drawn) [Example 248] | 5 to 50 nM

The remaining lines, values ahead:

Row | IC50 | SMILES
16 | 5 to 50 nM | CC(C)(O)COc1ccc2c(C(=O)NC3CC4(C3)CC(Oc3cc(-n5cccn5)ccc3C(N)=O)C4)cnn2c1 (stereo not drawn) [Example 223, N-(6-(2-carbamoyl-5-(1H-pyrazol-1-yl)phenoxy)spiro[3.3]heptan-2-yl)-6-(2-hydroxy-2-methylpropoxy)pyrazolo[1,5-a]pyridine-3-carboxamide]
17 | 5 to 50 nM | CN1CCN(c2ccc(C(N)=O)c(OC3CC4(CC(NC(=O)c5cnn6cc(OCC(C)(C)O)ccc56)C4)C3)c2)CC1 (stereo not drawn) [Example 224, N-(6-(2-carbamoyl-5-(4-methylpiperazin-1-yl)phenoxy)spiro[3.3]heptan-2-yl)-6-(2-hydroxy-2-methylpropoxy)pyrazolo[1,5-a]pyridine-3-carboxamide]
18 | 5 to 50 nM | CC(C)(O)COc1ccc2c(C(=O)NC3CC4(C3)CC(Oc3cc(-c5ccncc5)ccc3C(N)=O)C4)cnn2c1 (stereo not drawn) [Example 225, N-(6-(2-carbamoyl-5-(pyridin-4-yl)phenoxy)spiro[3.3]heptan-2-yl)-6-(2-hydroxy-2-methylpropoxy)pyrazolo[1,5-a]pyridine-3-carboxamide]
19 | 5 to 50 nM | CC(C)(O)COc1ccc2c(C(=O)NC3CC4(C3)CC(Oc3cc(N5CCCC5)ccc3C(N)=O)C4)cnn2c1 (stereo not drawn) [Example 227, N-(6-(2-carbamoyl-5-(pyrrolidin-1-yl)phenoxy)spiro[3.3]heptan-2-yl)-6-(2-hydroxy-2-methylpropoxy)pyrazolo[1,5-a]pyridine-3-carboxamide]
20 | 5 to 50 nM | CC(C)(O)COc1ccc2c(C(=O)NC3CC4(C3)CC(Oc3cc(-c5ccccc5F)ccc3C(N)=O)C4)cnn2c1 (stereo not drawn) [Example 229, N-(6-((4-carbamoyl-2′-fluoro-[1,1′-biphenyl]-3-yl)oxy)spiro[3.3]heptan-2-yl)-6-(2-hydroxy-2-methylpropoxy)pyrazolo[1,5-a]pyridine-3-carboxamide]
21 | < 5 nM | CC(C)(O)COc1ccc2c(C(=O)NC3CC4(C3)CC(Oc3cc(-c5cccc(F)n5)ccc3C(N)=O)C4)cnn2c1 (stereo not drawn) [Example 231, N-(6-(2-carbamoyl-5-(6-fluoropyridin-2-yl)phenoxy)spiro[3.3]heptan-2-yl)-6-(2-hydroxy-2-methylpropoxy)pyrazolo[1,5-a]pyridine-3-carboxamide]
22 | 5 to 50 nM | COC(=O)c1cncc(-c2ccc(C(N)=O)c(OC3CC4(CC(NC(=O)c5cnn6cc(OCC(C)(C)O)ccc56)C4)C3)c2)c1 (stereo not drawn) [Example 232, methyl 5-(4-carbamoyl-3-((6-(6-(2-hydroxy-2-methylpropoxy)pyrazolo[1,5-a]pyridine-3-carboxamido)spiro[3.3]heptan-2-yl)oxy)phenyl)nicotinate]
23 | 5 to 50 nM | COCCOC(=O)Nc1ccc(-c2ccc(C(N)=O)c(OC3CC4(CC(NC(=O)c5cnn6cc(OCC(C)(C)O)ccc56)C4)C3)c2)cn1 (stereo not drawn) [Example 233, 2-methoxyethyl (5-(4-carbamoyl-3-((6-(6-(2-hydroxy-2-methylpropoxy)pyrazolo[1,5-a]pyridine-3-carboxamido)spiro[3.3]heptan-2-yl)oxy)phenyl)pyridin-2-yl)carbamate]
24 | 5 to 50 nM | COc1cccc(-c2ccc(C(N)=O)c(OC3CC4(CC(NC(=O)c5cnn6cc(OCC(C)(C)O)ccc56)C4)C3)c2)n1 (stereo not drawn) [Example 235, N-(6-(2-carbamoyl-5-(6-methoxypyridin-2-yl)phenoxy)spiro[3.3]heptan-2-yl)-6-(2-hydroxy-2-methylpropoxy)pyrazolo[1,5-a]pyridine-3-carboxamide]
25 | < 5 nM | CC(C)(O)COc1ccc2c(C(=O)NC3CC4(C3)CC(Oc3cc(-c5cccc(C#N)c5)ccc3C(N)=O)C4)cnn2c1 (stereo not drawn) [Example 244, N-(6-((4-carbamoyl-3′-cyano-[1,1′-biphenyl]-3-yl)oxy)spiro[3.3]heptan-2-yl)-6-(2-hydroxy-2-methylpropoxy)pyrazolo[1,5-a]pyridine-3-carboxamide]
26 | < 5 nM | CC(C)(O)COc1ccc2c(C(=O)NC3CC4(C3)CC(Oc3cc(-c5cccc(CO)c5)ccc3C(N)=O)C4)cnn2c1 (stereo not drawn) [Example 247, N-(6-((4-carbamoyl-3′-(hydroxymethyl)-[1,1′-biphenyl]-3-yl)oxy)spiro[3.3]heptan-2-yl)-6-(2-hydroxy-2-methylpropoxy)pyrazolo[1,5-a]pyridine-3-carboxamide]
27 | < 5 nM | CC(C)(O)COc1ccc2c(C(=O)NC3CC4(C3)CC(Oc3cc(-c5cccc(COC(=O)NCCC(=O)O)c5)ccc3C(N)=O)C4)cnn2c1 (stereo not drawn) [Example 249, 3-((((4′-carbamoyl-3′-((6-(6-(2-hydroxy-2-methylpropoxy)pyrazolo[1,5-a]pyridine-3-carboxamido)spiro[3.3]heptan-2-yl)oxy)-[1,1′-biphenyl]-3-yl)methoxy)carbonyl)amino)propanoic acid]
